Test results reported in PubChem BioAssay AID651894 (Broad Institute, 2012).

Test system: T. b. rhodesiense STIB900 bloodstream, Alamar blue, 72 h
Experiment: African trypanosome bloodstream form growth inhibition – STIB900 strain, plate reader, dry powder, dose response (AID 651894)

SMILES: C[C@@H]1CN([C@@H](C)CO)C(=O)c2cccc(NC(=O)c3ccncc3)c2O[C@H]1CN(C)Cc1ccc(Oc2ccccc2)cc1
- IC50: 170 nM
